The subject of the experiment is HCT-116. As to the kind of experiment: Cytotoxicity against human HCT-116 cells assessed as inhibition of cell viability incubated for 48 hrs by CCK8 assay. Type of experiment: functional, cell-based. The conditions noted are these: HCT-116, 48 h. A general note: Tetrazolium dyes change colour on reduction, which living cells bring about.

In the case of `C#CC(=O)N1CCN(CCNC(=O)c2ccc3c(c2)C(=O)/C(=C2/C(=O)Nc4ccccc42)N3)CC1`, the IC50 stood at 6.31 µM.

As for `C#CC(=O)CCCCC(=O)c1ccc2c(c1)C(=O)/C(=C1/C(=O)Nc3ccccc31)N2`, the 50% inhibitory concentration (IC50) came to 3 µM.

Regarding `O=C(CCl)CCCC(=O)c1ccc2c(c1)C(=O)/C(=C1/C(=O)Nc3ccccc31)N2`, the IC50 was found to be 3.96 µM.

On to `C#CC(=O)N1CCN(NC(=O)c2ccc3c(c2)C(=O)/C(=C2/C(=O)Nc4ccccc42)N3)CC1`, for which the IC50 was determined as 3.47 µM.

For the molecule `O=C1Nc2ccccc2/C1=C1/Nc2ccc(C(=O)NC3CCN(C(=O)CCl)CC3)cc2C1=O`, the half-inhibitory concentration (IC50) came out at 1.81 µM.

With `C=CC(=O)N1CCN(CCNC(=O)c2ccc3c(c2)C(=O)/C(=C2/C(=O)Nc4ccccc42)N3)CC1`, the IC50 worked out at 17.5 µM.

Consider `O=C(CCl)CCCCC(=O)c1ccc2c(c1)C(=O)/C(=C1/C(=O)Nc3ccccc31)N2`, for which the IC50 is 1.72 µM.

For `O=C1Nc2ccccc2/C1=C1/Nc2ccc(C(=O)NCCC3CCN(C(=O)CCl)CC3)cc2C1=O`, the IC50 is 0.72 µM.

With `O=C1Nc2ccccc2/C1=C1/Nc2ccc(C(=O)NN3CCN(C(=O)CCl)CC3)cc2C1=O`, the 50% inhibitory concentration (IC50) is 1.44 µM.

Consider `C=CC(=O)CCCCC(=O)c1ccc2c(c1)C(=O)/C(=C1/C(=O)Nc3ccccc31)N2`, for which the half-maximal inhibitory concentration (IC50) is 14.1 µM.

In the case of `C#CC(=O)CCCC(=O)c1ccc2c(c1)C(=O)/C(=C1/C(=O)Nc3ccccc31)N2`, the half-maximal inhibitory concentration (IC50) stood at 7.4 µM.

For `C#CC(=O)CCCCCC(=O)c1ccc2c(c1)C(=O)/C(=C1/C(=O)Nc3ccccc31)N2`, the IC50 is 3.53 µM.

In the case of `C#CC(=O)N1CCC(CCNC(=O)c2ccc3c(c2)C(=O)/C(=C2/C(=O)Nc4ccccc42)N3)CC1`, the IC50 was determined as 1.85 µM.

With `C=CC(=O)CCC(=O)c1ccc2c(c1)C(=O)/C(=C1/C(=O)Nc3ccccc31)N2`, the concentration for half-maximal inhibition (IC50) was > 20 µM.

As to `O=C(CCl)CCCCCC(=O)c1ccc2c(c1)C(=O)/C(=C1/C(=O)Nc3ccccc31)N2`, the IC50 is 2.18 µM.

Consider `C=CC(=O)N1CCN(C(=O)c2ccc3c(c2)C(=O)/C(=C2/C(=O)Nc4ccccc42)N3)CC1`, for which the IC50 stood at 17.6 µM.

As for `C=CC(=O)N1CCN(NC(=O)c2ccc3c(c2)C(=O)/C(=C2/C(=O)Nc4ccccc42)N3)CC1`, the IC50 was found to be 12.4 µM.

A word on the IC50: it is the concentration needed to halve the response being measured.

For the origin of these results see ChEMBL document CHEMBL5634124, “Discovery and optimization of indirubin derivatives as novel ferroptosis inducers for the treatment of colon cancer” (Eur J Med Chem, 2023).
